In PubChem BioAssay (NCI):
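These data come from cells grown in 96-well plates and exposed to compound for 48 hours at five concentrations. TGI is the concentration that stops growth completely.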

How the values were obtained:
Test in all cases: NCI tumour cell line growth inhibition, 48 h
[1] = tested on: MOLT-4 leukemia
[2] = tested on: SR leukemia
[3] = tested on: OVCAR-5 ovarian
[4] = tested on: SW-620 colon
[5] = tested on: SK-MEL-5 melanoma
[6] = tested on: SF-268 CNS
[7] = tested on: DMS 114 small cell lung
[8] = tested on: UACC-62 melanoma
[9] = tested on: UACC-257 melanoma
[10] = tested on: OVCAR-3 ovarian
[11] = tested on: NCI-H23 lung
[12] = tested on: HOP-18 NSCLC
[13] = tested on: SF-295 CNS
[14] = tested on: DLD-1 colon
[15] = tested on: KM20L2 colon
[16] = tested on: A498 renal
[17] = tested on: M19-MEL melanoma
[18] = tested on: COLO 205 colon
[19] = tested on: SK-MEL-2 melanoma
[20] = tested on: 786-0 renal
[21] = tested on: RPMI-8226 leukemia
[22] = tested on: MALME-3M melanoma
[23] = tested on: IGROV1 ovarian
[24] = tested on: U251 CNS
[25] = tested on: HCT-116 colon
[26] = tested on: UO-31 renal
[27] = tested on: NCI-H226 lung
[28] = tested on: XF 498 CNS
[29] = tested on: RXF 393 renal
[30] = tested on: DMS 273 small cell lung
[31] = tested on: K-562 leukemia
[32] = tested on: NCI-H460 lung
[33] = tested on: ACHN renal
[34] = tested on: HOP-62 NSCLC
[35] = tested on: A549 NSCLC
[36] = tested on: HL-60(TB) leukemia
[37] = tested on: TK-10 renal
[38] = tested on: CAKI-1 renal
[39] = tested on: HCC-2998 colon
[40] = tested on: HT29 colon
[41] = tested on: SN12C renal
[42] = tested on: EKVX NSCLC
[43] = tested on: SF-539 CNS
[44] = tested on: M14 melanoma
[45] = tested on: OVCAR-4 ovarian
[46] = tested on: SNB-75 CNS
[47] = tested on: HOP-92 NSCLC
[48] = tested on: SNB-78 CNS
[49] = tested on: NCI-H522 lung
[50] = tested on: SNB-19 CNS
[51] = tested on: RXF-631 renal
[52] = tested on: SK-MEL-28 melanoma
[53] = tested on: KM12 colon
[54] = tested on: HCT-15 colon
[55] = tested on: SK-OV-3 ovarian
[56] = tested on: LXFL 529 NSCLC
[57] = tested on: OVCAR-8 ovarian
[58] = tested on: CCRF-CEM leukemia
[59] = tested on: LOX IMVI melanoma

SMILES: COc1ccc(Cc2nc3ccccc3s2)cc1OC
- TGI [1]: 63.9 µM
- TGI [2]: 57.1 µM
- TGI [3]: 37.6 µM
- TGI [4]: 32.7 µM
- TGI [5]: 30.1 µM
- TGI [6]: 29.5 µM
- TGI [7]: 29.9 µM
- TGI [8]: 31.4 µM
- TGI [9]: 32.9 µM
- TGI [10]: 31 µM
- TGI [11]: 40.4 µM
- TGI [12]: 62.2 µM
- TGI [13]: 28.9 µM
- TGI [14]: 31.7 µM
- TGI [15]: 36.5 µM
- TGI [16]: 49.5 µM
- TGI [17]: 29.4 µM
- TGI [18]: 27.7 µM
- TGI [19]: 42.6 µM
- TGI [20]: 31.9 µM
- TGI [21]: 70.9 µM
- TGI [22]: 32.6 µM
- TGI [23]: 35.7 µM
- TGI [24]: 27.7 µM
- TGI [25]: 29.2 µM
- TGI [26]: 30 µM
- TGI [27]: 45.7 µM
- TGI [28]: 28.8 µM
- TGI [29]: 34.7 µM
- TGI [30]: 29.2 µM
- TGI [31]: 49.6 µM
- TGI [32]: 38.3 µM
- TGI [33]: 31 µM
- TGI [34]: 93.5 µM
- TGI [35]: 61.8 µM
- TGI [36]: 45.3 µM
- TGI [37]: 84.7 µM
- TGI [38]: 31.3 µM
- TGI [39]: 49 µM
- TGI [40]: 35.8 µM
- TGI [41]: 30.8 µM
- TGI [42]: 37.1 µM
- TGI [43]: 31.2 µM
- TGI [44]: 31.6 µM
- TGI [45]: 37.7 µM
- TGI [46]: 36.8 µM
- TGI [47]: 36.5 µM
- TGI [48]: 44.8 µM
- TGI [49]: 32.2 µM
- TGI [50]: 99.9 µM
- TGI [51]: 31.7 µM
- TGI [52]: 31.9 µM
- TGI [53]: 32.2 µM
- TGI [54]: 60.7 µM
- TGI [55]: 43.5 µM
- TGI [56]: 31.4 µM
- TGI [57]: 30.9 µM
- TGI [58]: 44.7 µM

SMILES: NC(=O)C12CC3CC(CC(Br)(C3)C1)C2
- TGI [1]: > 100 µM
- TGI [2]: > 100 µM
- TGI [3]: > 100 µM
- TGI [4]: > 100 µM
- TGI [5]: > 100 µM
- TGI [6]: > 100 µM
- TGI [7]: > 100 µM
- TGI [8]: > 100 µM
- TGI [9]: > 100 µM
- TGI [10]: > 100 µM
- TGI [11]: > 100 µM
- TGI [12]: > 100 µM
- TGI [13]: > 100 µM
- TGI [14]: > 100 µM
- TGI [15]: > 100 µM
- TGI [16]: > 100 µM
- TGI [20]: > 100 µM
- TGI [21]: > 100 µM
- TGI [23]: > 100 µM
- TGI [24]: > 100 µM
- TGI [25]: > 100 µM
- TGI [26]: > 100 µM
- TGI [28]: > 100 µM
- TGI [30]: > 100 µM
- TGI [32]: > 100 µM
- TGI [33]: > 100 µM
- TGI [34]: > 100 µM
- TGI [35]: > 100 µM
- TGI [36]: > 100 µM
- TGI [37]: > 100 µM
- TGI [38]: > 100 µM
- TGI [39]: > 100 µM
- TGI [40]: > 100 µM
- TGI [41]: > 100 µM
- TGI [59]: > 100 µM
- TGI [42]: > 100 µM
- TGI [43]: > 100 µM
- TGI [44]: > 100 µM
- TGI [45]: > 100 µM
- TGI [46]: > 100 µM
- TGI [47]: > 100 µM
- TGI [48]: > 100 µM
- TGI [49]: > 100 µM
- TGI [50]: > 100 µM
- TGI [51]: > 100 µM
- TGI [52]: > 100 µM
- TGI [53]: > 100 µM
- TGI [54]: > 100 µM
- TGI [55]: > 100 µM
- TGI [56]: > 100 µM
- TGI [57]: > 100 µM
- TGI [58]: > 100 µM

SMILES: COc1cccc(NC(=O)CC(=O)NNCC(=O)Nc2nnc(-c3ccc(N(CCC#N)S(=O)(=O)c4ccccc4)cc3)s2)c1
- TGI [1]: > 100 µM
- TGI [2]: > 100 µM
- TGI [3]: > 100 µM
- TGI [4]: > 100 µM
- TGI [5]: > 100 µM
- TGI [6]: > 100 µM
- TGI [7]: > 100 µM
- TGI [8]: > 100 µM
- TGI [10]: > 100 µM
- TGI [11]: > 100 µM
- TGI [12]: > 100 µM
- TGI [13]: > 100 µM
- TGI [14]: > 100 µM
- TGI [15]: > 100 µM
- TGI [17]: > 100 µM
- TGI [18]: > 100 µM
- TGI [19]: > 100 µM
- TGI [21]: > 100 µM
- TGI [22]: > 100 µM
- TGI [23]: > 100 µM
- TGI [24]: > 100 µM
- TGI [25]: > 100 µM
- TGI [26]: > 100 µM
- TGI [27]: > 100 µM
- TGI [28]: > 100 µM
- TGI [29]: > 100 µM
- TGI [30]: > 100 µM
- TGI [31]: > 100 µM
- TGI [33]: > 100 µM
- TGI [34]: > 100 µM
- TGI [35]: > 100 µM
- TGI [37]: > 100 µM
- TGI [38]: > 100 µM
- TGI [39]: > 100 µM
- TGI [41]: > 100 µM
- TGI [59]: > 100 µM
- TGI [42]: > 100 µM
- TGI [43]: > 100 µM
- TGI [45]: > 100 µM
- TGI [47]: > 100 µM
- TGI [48]: > 100 µM
- TGI [49]: > 100 µM
- TGI [50]: > 100 µM
- TGI [51]: > 100 µM
- TGI [52]: > 100 µM
- TGI [53]: > 100 µM
- TGI [54]: > 100 µM
- TGI [55]: > 100 µM
- TGI [56]: > 100 µM
- TGI [57]: > 100 µM
